Results: patent US20250197387A1, “BCL-XL DEGRADERS AND USES THEREOF” (Kymera Therapeutics, Inc., priority 2021, published 2025)
Read-outs that look alike come from different tables or passages of the source.

Key:
MOLT-4 cells = test: CTG (CellTiter-Glo) cell viability assay, MOLT-4; assay type: cell-based; settings: Homo sapiens, 3 day incubation, read-out: CTG Cell Viability Assay - MOLT-4 3 day: Average external-IC50
Experimental: Compound-mediated viability effect on MOLT-4 and Caki-2 was quantitatively determined using the CellTiter-Glo® Luminescent Cell Viability Assay kit from Promega (Catalog number G7570) following manufacturer's recommended procedures. Briefly, MOLT-4 and Caki-2 cells were seeded into 384 well plates (Grenier Bio-One, Catalog number 781080) with a density of 10,000 cells per well. Compounds were then added to the assay plate with final top concentration of 10 μM and 1:3 dilution series with total of 9 doses. The final DMSO concentration is normalized to 0.2%. The assay plates were incubated at 37° C., for 3 days under 5% CO2. Then the assay plate was equilibrated at room temperature for 10 minutes. To determine cell viability, 30 uL CellTiter Glo reagent was added to each well and the assay plate was centrifuged at 1000 rpm for 30 second, incubated at room temperature for 10 min, and analyzed by detecting the luminescence using a multimode plate reader (EnVision 2105, PerkinElmer). The data was then analyzed by software Prism 7.0 from GraphPad and the dose response curves are fit using a three-parameter logistic equation to calculate IC50.
The letter codes for MOLT-4 IC50 include: A (<0.1 μM); B (0.1-1.0 μM); C (>1.0-3.0 μM); and D (>3.0 μM). The letter codes for Caki-2 IC50 include: A (<0.1 μM); B (0.1-1.0 μM); C (>1.0-10.0 μM); and D (>10.0 μM).

BCL-XL = molecular target: T1, BCL-XL (Homo sapiens, UniProt Q07817); test: BCL-XL degradation assay, western blot in MOLT-4 cells, 16 h; assay type: cell-based; settings: for DC50: read-out: Bcl-xL WB in MOLT-4 degradation 16 h: Mean external-Abs DC50
T1 construct: endogenous in cells; host or cells: MOLT-4
Method in brief: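 Infrared-imaged western blots quantified BCL-xL (normalised against beta-actin/GAPDH) after 16 hr, 37° C exposure of MOLT-4 cells to 0.02-10 μM compound; results given as DC50 and Dmax % bins.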

[1] = western blot, MOLT-4 cells, 16 h, read-out: Bcl-xL WB in MOLT-4 degradation 16 h: Average Dmax %
[2] = western blot, MOLT-4 cells, 16 h
[3] = MOLT-4, read-out: Bcl-xL WB in MOLT-4 degradation 16 h: Average Dmax %

T1 sequence (Q07817 whole entry): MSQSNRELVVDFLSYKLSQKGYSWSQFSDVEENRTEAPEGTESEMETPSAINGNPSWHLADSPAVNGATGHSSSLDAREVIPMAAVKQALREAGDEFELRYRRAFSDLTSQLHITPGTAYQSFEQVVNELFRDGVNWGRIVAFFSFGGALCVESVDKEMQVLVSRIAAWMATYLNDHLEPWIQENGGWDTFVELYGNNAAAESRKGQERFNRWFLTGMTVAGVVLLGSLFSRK

Structure (SMILES) | IC50 (MOLT-4 cells; MOLT-4, 72 h) [nM] | Dmax (BCL-XL; [1]) [%] | DC50 (BCL-XL; [2]) [nM] | IC50 (MOLT-4 cells; 72 h) [nM] | Dmax (BCL-XL; [3]) [%]
Cc1ncsc1-c1ccc(CNC(=O)[C@@H]2C[C@@H](O)CN2C(=O)[C@@H](NC(=O)C2(C#N)CC2)C(C)(C)C)c(OCC(=O)N2CCN(CC[C@H](CSc3ccccc3)Nc3ccc(S(=O)(=O)NC(=O)c4ccc(N5CCN(CC6=C(c7ccc(Cl)cc7)CCC(C)(C)C6)CC5)cc4)cc3S(=O)(=O)C(F)(F)F)CC2)c1 [I-133] | 1000 to 3000 | > 75 | 10 to 100 | – | –
Cc1cc([C@H](C(=O)N2C[C@H](O)C[C@H]2C(=O)NCc2ccc(-c3scnc3C)cc2OCC(=O)N2CCN(CC[C@H](CSc3ccccc3)Nc3ccc(S(=O)(=O)NC(=O)c4ccc(N5CCN(CC6=C(c7ccc(Cl)cc7)CCC(C)(C)C6)CC5)cc4)cc3S(=O)(=O)C(F)(F)F)CC2)C(C)C)on1 [I-134] | > 3000 | < 50 | > 1000 | – | –
Cc1cc([C@@H](C(=O)N2C[C@H](O)C[C@H]2C(=O)NCc2ccc(-c3scnc3C)cc2OCC(=O)N2CCN(CC[C@H](CSc3ccccc3)Nc3ccc(S(=O)(=O)NC(=O)c4ccc(N5CCN(CC6=C(c7ccc(Cl)cc7)CCC(C)(C)C6)CC5)cc4)cc3S(=O)(=O)C(F)(F)F)CC2)C(C)C)on1 [I-135] | 100 to 1000 | > 75 | 10 to 100 | – | –
Cc1ncsc1-c1ccc([C@H](CC(=O)N(C)CC(=O)N2CCN(CC[C@H](CSc3ccccc3)Nc3ccc(S(=O)(=O)NC(=O)c4ccc(N5CCN(CC6=C(c7ccc(Cl)cc7)CCC(C)(C)C6)CC5)cc4)cc3S(=O)(=O)C(F)(F)F)CC2)NC(=O)[C@@H]2C[C@@H](O)CN2C(=O)[C@@H](NC(=O)C2(F)CC2)C(C)(C)C)cc1 [I-136] | – | – | > 1000 | > 3000 | < 50
Cc1ncsc1-c1ccc([C@@H](CC(=O)N(C)CC(=O)N2CCN(CC[C@H](CSc3ccccc3)Nc3ccc(S(=O)(=O)NC(=O)c4ccc(N5CCN(CC6=C(c7ccc(Cl)cc7)CCC(C)(C)C6)CC5)cc4)cc3S(=O)(=O)C(F)(F)F)CC2)NC(=O)[C@@H]2C[C@@H](O)CN2C(=O)[C@@H](NC(=O)C2(F)CC2)C(C)(C)C)cc1 [I-137] | – | – | 100 to 500 | 1000 to 3000 | > 75
Cc1ncsc1-c1ccc([C@H](CC(=O)N(C)CCCC(=O)N2CCN(CC[C@H](CSc3ccccc3)Nc3ccc(S(=O)(=O)NC(=O)c4ccc(N5CCN(CC6=C(c7ccc(Cl)cc7)CCC(C)(C)C6)CC5)cc4)cc3S(=O)(=O)C(F)(F)F)CC2)NC(=O)[C@@H]2C[C@@H](O)CN2C(=O)[C@@H](NC(=O)C2(F)CC2)C(C)(C)C)cc1 [I-138] | > 3000 | < 50 | > 1000 | – | –
Cc1ncsc1-c1ccc([C@@H](CC(=O)N(C)CCCC(=O)N2CCN(CC[C@H](CSc3ccccc3)Nc3ccc(S(=O)(=O)NC(=O)c4ccc(N5CCN(CC6=C(c7ccc(Cl)cc7)CCC(C)(C)C6)CC5)cc4)cc3S(=O)(=O)C(F)(F)F)CC2)NC(=O)[C@@H]2C[C@@H](O)CN2C(=O)[C@@H](NC(=O)C2(F)CC2)C(C)(C)C)cc1 [I-139] | 1000 to 3000 | > 75 | 100 to 500 | – | –
Cc1ncsc1-c1ccc([C@H](C)NC(=O)[C@@H]2C[C@@H](O)CN2C(=O)[C@@H](NC(=O)CCCCCCCS(=O)(=O)NC(=O)c2nc(N3CCc4cccc(C(=O)Nc5nc6ncccc6s5)c4C3)ccc2-c2cnn(CC34CC5CC(CC(C5)C3)C4)c2C)C(C)(C)C)cc1 [I-140] | 100 to 1000 | > 75 | < 10 | – | –
Cc1ncsc1-c1ccc([C@H](C)NC(=O)[C@@H]2C[C@@H](O)CN2C(=O)[C@@H](NC(=O)CCCCCCCCNC(=O)c2nc(N3CCc4cccc(C(=O)Nc5nc6ccccc6s5)c4C3)ccc2-c2cnn(CC3CCOCC3)c2C)C(C)(C)C)cc1 [I-142] | > 3000 | > 75 | 100 to 500 | – | –
Cc1ncsc1-c1ccc([C@H](C)NC(=O)[C@@H]2C[C@@H](O)CN2C(=O)[C@@H](NC(=O)N2CCC(CN3CCC(CNC(=O)c4nc(N5CCc6cccc(C(=O)Nc7nc8ccccc8s7)c6C5)ccc4-c4cnn(CC5CCCCC5)c4C)CC3)CC2)C(C)(C)C)cc1 [I-144] | 100 to 1000 | 50 to 75 | 500 to 1000 | – | –
Cc1ncsc1-c1ccc([C@H](C)NC(=O)[C@@H]2C[C@@H](O)CN2C(=O)[C@H](NC(=O)CCCCCCCS(=O)(=O)NC(=O)c2nc(N3CCc4cccc(C(=O)Nc5nc6ccccc6s5)c4C3)ccc2-c2cnn(C)c2C)C(C)(C)C)cc1 [I-145] | > 3000 | > 75 | 100 to 500 | – | –
Cc1ncsc1-c1ccc([C@H](C)NC(=O)[C@@H]2C[C@@H](O)CN2C(=O)[C@@H](NC(=O)N2CC3(CN(CCCS(=O)(=O)NC(=O)c4nc(N5CCc6cccc(C(=O)Nc7nc8ccccc8s7)c6C5)ccc4-c4cnn(CC5CCCCC5)c4C)C3)C2)C(C)(C)C)cc1 [I-151] | 1000 to 3000 | < 50 | 100 to 500 | – | –
Cc1ncsc1-c1ccc(CNC(=O)[C@@H]2C[C@@H](O)CN2C(=O)[C@@H](c2cc(OCCCCCCCCC(=O)N(C)CC#Cc3ccc(OCCCc4ccc(N5CCc6cccc(C(=O)Nc7nc8ccccc8s7)c6C5)nc4C(=O)O)c(F)c3)no2)C(C)C)cc1 [I-171] | 1000 to 3000 | 50 to 75 | 100 to 500 | – | –

The next lines start with results.

IC50 (MOLT-4 cells; MOLT-4, 72 h) [nM] | Dmax (BCL-XL; [1]) [%] | DC50 (BCL-XL; [2]) [nM] | Structure (SMILES) | IC50 (MOLT-4 cells; 72 h) [nM] | Dmax (BCL-XL; [3]) [%]
100 to 1000 | 50 to 75 | > 1000 | Cc1ncsc1-c1ccc(CNC(=O)[C@@H]2C[C@@H](O)CN2C(=O)[C@@H](NC(=O)C2(F)CC2)C(C)(C)C)c(OCC(=O)N2CCN(CCCC3(Cn4ncc(-c5ccc(N6CCc7cccc(C(=O)Nc8nc9ccccc9s8)c7C6)nc5C(=O)O)c4C)CCCCC3)CC2)c1 [I-173] | – | –
1000 to 3000 | < 50 | > 1000 | Cc1ncsc1-c1ccc([C@H](C)NC(=O)[C@@H]2C[C@@H](O)CN2C(=O)[C@H](c2cc(OC3CCN(CCCS(=O)(=O)NC(=O)c4nc(N5CCc6cccc(C(=O)Nc7nc8ccccc8s7)c6C5)ccc4-c4cnn(CC5CCCCC5)c4C)CC3)no2)C(C)C)cc1 [I-174] | – | –
100 to 1000 | < 50 | > 1000 | Cc1ncsc1-c1ccc([C@H](C)NC(=O)[C@@H]2C[C@@H](O)CN2C(=O)C(c2cc(OCC3CCN(CCNC(=O)c4nc(N5CCc6cccc(C(=O)Nc7nc8ccccc8s7)c6C5)ccc4-c4cnn(CC5CCCCC5)c4C)CC3)no2)C(C)C)cc1 (stereo partly drawn) [I-175] | – | –
> 3000 | < 50 | > 1000 | Cc1ncsc1-c1ccc(CNC(=O)[C@@H]2C[C@@H](O)CN2C(=O)[C@@H](c2cc(N3CC4(CN(CCCC(=O)N(C)CC#Cc5ccc(OCCCc6ccc(N7CCc8cccc(C(=O)Nc9nc%10ccccc%10s9)c8C7)nc6C(=O)O)c(F)c5)C4)C3)no2)C(C)C)cc1 [I-180] | – | –
> 3000 | 50 to 75 | > 1000 | Cc1cc(N(C)c2ccc(-c3cnn(CC4CCCCC4)c3C)c(C(=O)NS(=O)(=O)CCCCCOc3cc(-c4scnc4C)ccc3CNC(=O)[C@@H]3C[C@@H](O)CN3C(=O)[C@@H](NC(=O)C3(F)CC3)C(C)(C)C)n2)nnc1Nc1nc2ccccc2s1 [I-188] | – | –
100 to 1000 | 50 to 75 | 500 to 1000 | Cc1ncsc1-c1ccc(CNC(=O)[C@@H]2C[C@@H](O)CN2C(=O)[C@@H](NC(=O)C2(F)CC2)C(C)(C)C)c(OCCCCNC(=O)c2nc(N3CCc4cccc(C(=O)Nc5nc6ccccc6s5)c4C3)ccc2-c2cnn(CC3CCCCC3)c2C)c1 [I-190] | – | –
100 to 1000 | 50 to 75 | 100 to 500 | Cc1ncsc1-c1ccc(CNC(=O)[C@@H]2C[C@@H](O)CN2C(=O)[C@@H](NC(=O)C2(F)CC2)C(C)(C)C)c(OCCN2CCC(NC(=O)c3nc(N4CCc5cccc(C(=O)Nc6nc7ccccc7s6)c5C4)ccc3-c3cnn(CC4CCCCC4)c3C)CC2)c1 [I-191] | – | –
100 to 1000 | > 75 | 10 to 100 | Cc1ncsc1-c1ccc(CNC(=O)[C@@H]2C[C@@H](O)CN2C(=O)[C@@H](c2cc(N3CC4(CN(C(=O)CCCCC(=O)N(C)CC#Cc5ccc(OCCCc6ccc(N7CCc8cccc(C(=O)Nc9nc%10ccccc%10s9)c8C7)nc6C(=O)O)c(F)c5)C4)C3)no2)C(C)C)cc1 [I-193] | – | –
100 to 1000 | 50 to 75 | 100 to 500 | Cc1ncsc1-c1ccc(CNC(=O)[C@@H]2C[C@@H](O)CN2C(=O)[C@@H](NC(=O)C2(F)CC2)C(C)(C)C)c(OCCCNC(=O)c2nc(N3CCc4cccc(C(=O)Nc5nc6ccccc6s5)c4C3)ccc2-c2cnn(CC3CCCCC3)c2C)c1 [I-200] | – | –
100 to 1000 | < 50 | > 1000 | Cc1cc(N(C)c2ccc(-c3cnn(CC4CCCCC4)c3C)c(C(=O)NCCCCCCOc3cc(-c4scnc4C)ccc3CNC(=O)[C@@H]3C[C@@H](O)CN3C(=O)[C@@H](NC(=O)C3(F)CC3)C(C)(C)C)n2)nnc1Nc1nc2ccccc2s1 [I-203] | – | –
